Results as given in publication PMC7559897, “Designed Antimicrobial Peptides Against Trauma-Related Cutaneous Invasive Fungal Wound Infections” (Journal of Fungi, 2020).
In brackets after ≈: the same amount, converted by molar mass. Bridge positions count the residues as written; N and C are the ends. Square brackets hold non-standard residues; d marks the D form. Peptide text beside a SMILES is read from it. Orn = NCCC[C@H](N)C(=O)O

What was measured:
[1] = test system: P. aeruginosa 19660 (Xen5 luciferase); assay: Bioluminescent time-kill assay; format: cell-based, Pseudomonas aeruginosa; settings: 8 μg/mL, 60 min, bioluminescence, triplicates from two independent experiments
Excerpt: (§1) Fungal and bacterial strains were obtained from American Type Culture Collection (ATCC, Manassas, VA, USA) or the clinical isolate collection at Trideum Biosciences (Frederick, MD, USA) and are presented in Table 1 and Table 2, respectively. Bioluminescence strains of P. aeruginosa 19660, transfected with the Xen5 luciferase gene, and S. aureus ATCC R 49525TM (Wright), transfected with the Xen36 luciferase gene, were obtained from Perkin Elmer (Waltham, MA, USA).
(§2) Real-time killing of bacterial cells, P. aeruginosa or S. aureus, and mammalian cytotoxicity to assess dAMP off-target toxicity was evaluated using bioluminescent cells. The L929 fibroblast cells (ATCC, Manassas, VA, USA) were made bioluminescent by transfection with a luciferase gene. Cells (1 × 10^4 cells, 100 μL) were plated in 96-well black-walled plates and the candidate dAMPs were 2-fold serially diluted from specified concentrations in growth medium supplemented with 150 μg/mL D-luciferin. Each concentration was performed in triplicate, with the final volume being 200 μL. Imaging was performed at select times after the addition of the dAMP, and compared to concurrently run vehicle-control, using an IVIS Lumina imaging system (Caliper Life Sciences, Inc., Hopkinton, MA, USA). For imaging, the 96-well plate was positioned on the stage (12.5-cm field of view), with an open emission filter, binning of 4, and f-stop 1 and a 1-min exposure time. Monitoring bioluminescence allows assessment of the kinetics of cellular viability as there is a tight correlation between the bioluminescent signal and cell viability. Data analysis was performed using the Living Image software program (version 4.3, Caliper Life Sciences, Inc., Hopkinton, MA, USA).
(§3) Figure 3 RP553, RP556, RP557 rapidly destroy P. aeruginosa and S. aureus. The bioluminescence of viable P. aeruginosa 19,660 and S. aureus 49,525 cells was quantitated in real time with an IVIS Lumina bioimaging system. Data represent the mean ± SE of triplicate replicates from two independent experiments. For some points, the error bars are shorter than the height of the symbols.

P. aeruginosa ATCC 19660 = format: cell-based, Pseudomonas aeruginosa; settings: ATCC 19660, 24 h
Description: (§4) Assays were performed by Trideum Biosciences (Frederick, MD, USA). Isolates were thawed from −80 °C storage and sub-cultured on trypticase soy agar plates at 37 °C prior to experimentation. A single colony was aseptically picked from the agar plate and released in 30 mL trypticase soy broth and incubated overnight at 37 °C incubator. Following which the bacterial culture was diluted to approximately 10^6 colony forming units (CFU)/mL using 2X cation adjusted Mueller–Hinton broth and added to the dAMP solutions (0, 2, 4, 8, 16, 32, 64, and 128 μg/mL) which had been formulated in water at 256 μg/mL and then serially diluted in media on 96-well pates. For fungal evaluation, potato dextrose broth and potato dextrose agar plates were used. The treated cultures were then incubated for 24 h at 37 °C and pathogen growth was measured by absorbance at 600 nm. Four replicas were included for each dAMP concentration. Each MIC was assigned to the lowest test agent concentration resulting in at least three out of four wells showing no growth based on an optical density (OD) reading of <0.1.

P. aeruginosa ATCC 27853 = format: cell-based, Pseudomonas aeruginosa; settings: ATCC 27853, 24 h
Description: as §4

P. aeruginosa 6186 = format: cell-based, Pseudomonas aeruginosa; settings: 6186, 24 h
Description: as §4

Candida albicans Y-326 = format: cell-based; settings: Y-326, 24 h
Description: as §4

E. cloacae 6054 = format: cell-based; settings: 6054, 24 h
Description: as §4

Candida albicans Y-6359 = format: cell-based; settings: Y-6359, 24 h
Description: as §4

[2] = test system: Candida parapsilosis Y-1763; format: cell-based; settings: Y-1763, 24 h
Description: as §4

[3] = test system: Mucor circinelloides NRRL 3631; format: cell-based; settings: NRRL 3631, 24 h
Description: as §4

Candida krusei Y-27803 = format: cell-based; settings: Y-27803, 24 h
Description: as §4

E. cloacae 6053 = format: cell-based; settings: 6053, 24 h
Description: as §4

[4] = test system: Aspergillus fumigatus 9648; format: cell-based; settings: 9648, 24 h
Description: as §4

[5] = test system: Candida parapsilosis Y-1761; format: cell-based; settings: Y-1761, 24 h
Description: as §4

S. epidermis ATCC 51625 = format: cell-based; settings: ATCC 51625, 24 h
Description: as §4

[6] = test system: Fusarium solani NRRL 28548; format: cell-based; settings: NRRL 28548, 24 h
Description: as §4

[7] = test system: Aspergillus flavus MYA-3651; format: cell-based; settings: 24 h
Description: as §4

[8] = test system: Aspergillus fumigatus 9651; format: cell-based; settings: 9651, 24 h
Description: as §4

Candida krusei Y-27825 = format: cell-based; settings: Y-27825, 24 h
Description: as §4

[9] = test system: Aspergillus flavus MYA-1004; format: cell-based; settings: 24 h
Description: as §4

[10] = test system: Absidia corymbifera NRRL 6251; format: cell-based; settings: NRRL 6251, 24 h
Description: as §4

[11] = test system: S. aureus 49525 (Xen36 luciferase); format: cell-based, Staphylococcus aureus; settings: 8 μg/mL, 60 min incubation, bioluminescence, triplicates from two independent experiments
Excerpt: as §1, §2, §3

K. pneumonia 6069 = format: cell-based, Klebsiella pneumoniae; settings: 24 h
Description: as §4

K. pneumonia ATCC 10031 = format: cell-based, Klebsiella pneumoniae; settings: ATCC 10031, 24 h
Description: as §4

[12] = test system: vulvovaginal candidiasis infection; settings: rodent vulvovaginal candidiasis, after three days of daily treatment; cited from earlier work
Excerpt: The dAMPs RP504, RP554 and RP557 were thus tested for their ability to treat a rodent vulvovaginal candidiasis infection. […] A daily dose with a 2% concentration lowered the CFU/sample by more than 4 logs compared to the con ...

A. baumannii ATCC 17978 = format: cell-based, Acinetobacter baumannii; settings: ATCC 17978, 24 h
Description: as §4

A. baumannii 6838 = format: cell-based, Acinetobacter baumannii; settings: 6838, 24 h
Description: as §4

A. baumannii 6043 = format: cell-based, Acinetobacter baumannii; settings: 6043, 24 h
Description: as §4

MRSA ATCC 33592 = format: cell-based, Staphylococcus aureus; settings: ATCC 33592, 24 h
Description: as §4

MRSA 6381 = format: cell-based, Staphylococcus aureus; settings: 6381, 24 h
Description: as §4

MRSA 6313 = format: cell-based, Staphylococcus aureus; settings: 6313, 24 h
Description: as §4

S. aureus B-767 = format: cell-based, Staphylococcus aureus; settings: B-767, 24 h
Description: as §4

S. aureus 6061 = format: cell-based, Staphylococcus aureus; settings: 6061, 24 h
Description: as §4

In the case of CC[C@H](C)[C@H](NC(=O)CNC(=O)CNC(=O)[C@@H]1CSSC[C@H](NC(=O)CNC(=O)CNC(=O)[C@H](CC(C)C)NC(=O)[C@H](CCCN)NC(=O)[C@H](C)NC(=O)[C@H](CCCN)NC(=O)[C@@H](NC(=O)[C@H](CCCN)NC(=O)[C@@H](N)Cc2ccccc2)[C@@H](C)CC)C(=O)N[C@@H](CC(C)C)C(=O)NCC(=O)N[C@@H](CCCN)C(=O)N[C@@H](Cc2ccccc2)C(=O)N1)C(=O)N[C@@H](CCCN)C(=O)N[C@@H](C)C(=O)N[C@@H](CCCN)C(=O)N[C@@H](CC(C)C)C(=O)N[C@@H](C)C(=O)N[C@@H](Cc1ccccc1)C(N)=O [RP504] (H-F[Orn]I[Orn]A[Orn]LGGCLG[Orn]FCGGI[Orn]A[Orn]LAF-NH2; disulfide 10-15), the P. aeruginosa destroyed [1] is reported as 25%, the “MIC against P. aeruginosa ATCC 19660” value (P. aeruginosa ATCC 19660) is reported as 16 µg/mL (≈ 6.63 µM) and the “MIC against P. aeruginosa ATCC 27853” value (P. aeruginosa ATCC 27853) is reported as 16 µg/mL (≈ 6.63 µM). For the same compound, the “MIC against P. aeruginosa 6186” value (P. aeruginosa 6186) was 16 µg/mL (≈ 6.63 µM), the “MIC against Candida albicans Y-326” value (Candida albicans Y-326) was 8 µg/mL (≈ 3.32 µM) and the “MIC against E. cloacae 6054” value (E. cloacae 6054) was 64 µg/mL (≈ 26.5 µM). For the same compound, the “MIC against Candida albicans Y-6359” value (Candida albicans Y-6359) was 4 µg/mL (≈ 1.66 µM), the “MIC against Candida parapsilosis Y-1763” value [2] was 2 µg/mL (≈ 0.829 µM) and the “MIC against Mucor circinelloides NRRL 3631” value [3] was over 128 µg/mL. The “MIC against Candida krusei Y-27803” value (Candida krusei Y-27803) was 8 µg/mL (≈ 3.32 µM), the “MIC against E. cloacae 6053” value (E. cloacae 6053) was 32 µg/mL (≈ 13.3 µM) and the “MIC against Aspergillus fumigatus 9648” value [4] was over 128 µg/mL. For the same compound, the “MIC against Candida parapsilosis Y-1761” value [5] was 8 µg/mL (≈ 3.32 µM), the “MIC against S. epidermis ATCC 51625” value (S. epidermis ATCC 51625) was 16 µg/mL (≈ 6.63 µM) and the “MIC against Fusarium solani NRRL 28548” value [6] was 2 µg/mL (≈ 0.829 µM). For the same compound, the “MIC against Aspergillus flavus MYA-3651” value [7] was over 128 µg/mL, the “MIC against Aspergillus fumigatus 9651” value [8] was over 128 µg/mL and the “MIC against Candida krusei Y-27825” value (Candida krusei Y-27825) was 8 µg/mL (≈ 3.32 µM). For the same compound, the “MIC against Aspergillus flavus MYA-1004” value [9] was over 128 µg/mL, the “MIC against Absidia corymbifera NRRL 6251” value [10] was 8 µg/mL (≈ 3.32 µM) and the S. aureus killing [11] was 13%. The “MIC against K. pneumonia 6069” value (K. pneumonia 6069) was 32 µg/mL (≈ 13.3 µM), the “MIC against K. pneumonia ATCC 10031” value (K. pneumonia ATCC 10031) was 32 µg/mL (≈ 13.3 µM) and the “reduction of CFU/tissue sample” value [12] was at least 2.5 logs. The “MIC against A. baumannii ATCC 17978” value (A. baumannii ATCC 17978) was 32 µg/mL (≈ 13.3 µM), the “MIC against A. baumannii 6838” value (A. baumannii 6838) was 64 µg/mL (≈ 26.5 µM) and the “MIC against A. baumannii 6043” value (A. baumannii 6043) was 32 µg/mL (≈ 13.3 µM). For the same compound, the “MIC against MRSA ATCC 33592” value (MRSA ATCC 33592) was 32 µg/mL (≈ 13.3 µM), the “MIC against MRSA 6381” value (MRSA 6381) was 64 µg/mL (≈ 26.5 µM) and the “MIC against MRSA 6313” value (MRSA 6313) was 64 µg/mL (≈ 26.5 µM). The “MIC against S. aureus B-767” value (S. aureus B-767) was 32 µg/mL (≈ 13.3 µM) and the “MIC against S. aureus 6061” value (S. aureus 6061) was 64 µg/mL (≈ 26.5 µM).
